Test results published in patent publication US20190224214A1, “HUMAN GHRELIN O-ACYLTRANSFERASE INHIBITORS” (SYRACUSE UNIVERSITY, priority 2016, published 2019).
Like-named read-outs stand apart in the source and are kept apart here. Each block holds one molecule with its values, some of them ahead of it.

Columns and labels:
hGOAT [1] = biological target: T1, hGOAT (Homo sapiens, UniProt Q96T53); assay: fluorescence-based in vitro hGOAT activity assay (ghrelin octanoylation, HPLC readout); assay type: biochemical
T1 construct: made in house; host or cells: Sf9 insect cells (membrane fraction)
T1 sequence (Q96T53 1-435): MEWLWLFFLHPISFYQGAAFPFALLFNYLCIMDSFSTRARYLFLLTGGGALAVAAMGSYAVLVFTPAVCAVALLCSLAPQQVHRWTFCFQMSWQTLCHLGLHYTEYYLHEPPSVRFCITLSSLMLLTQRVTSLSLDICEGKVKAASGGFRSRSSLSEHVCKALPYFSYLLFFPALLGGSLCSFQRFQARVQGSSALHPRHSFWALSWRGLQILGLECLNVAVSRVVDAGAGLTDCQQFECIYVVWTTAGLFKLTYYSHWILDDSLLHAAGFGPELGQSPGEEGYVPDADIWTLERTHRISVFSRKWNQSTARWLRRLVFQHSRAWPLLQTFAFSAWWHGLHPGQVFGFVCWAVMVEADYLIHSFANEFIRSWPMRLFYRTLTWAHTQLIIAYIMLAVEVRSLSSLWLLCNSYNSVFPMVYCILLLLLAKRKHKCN
Method: hGOAT was expressed and enriched in insect (Sf9) cell membrane fractions using a previously published procedure.
Peptide substrates were labeled with acrylodan on a cysteine thiol and HPLC purified as previously reported.
hGOAT activity assays were performed using a modification of previously reported protocols. For each assay, membrane fraction from Sf9 cells expressing hGOAT was thawed on ice and passed through an 18-gauge needle 10 times to homogenize. Assays were performed with ˜100 μg of membrane protein, as determined by Bradford assay. Membrane fraction was preincubated with 1 μM methoxy arachadonyl fluorophosphonate (MAFP) and inhibitor or vehicle as indicated in 50 mM HEPES pH 7.0 for 30 minutes at room temperature. Reactions were initiated with the addition of 500 µM octanoyl CoA and 1.5 μM fluorescently-labeled ghrelin mimetic, GSSFLCAcrylodan, for a total volume of 50 μL, and were incubated for 3 hours at room temperature in the dark. Reactions were stopped with the addition of 50 μL of 20% acetic acid in isopropanol, and solutions were clarified by protein precipitation with 16.7 μL of 20% trichloroacetic acid, followed by centrifugation (1,000×g, 1 minute). The supernatant was then analyzed by reverse phase HPLC, as previously described. Data reported are the average of three independent determinations, with error bars representing one standard deviation.
For inhibition experiments, reactions were performed and analyzed as described in the presence of either inhibitor or vehicle (DMSO or ethanol) as appropriate. The percent activity at each inhibitor concentration calculated from HPLC data using equations 1 and 2: […]
To determine the IC50 value, the plot of % activity versus [inhibitor] was fit to equation 3, with % activity0 denoting hGOAT activity in the presence of the vehicle alone: […]

hGOAT [2] = biological target: T1, hGOAT; assay: Inhibitor reversibility assay (10-fold dilution after pretreatment at 3x IC50); assay type: biochemical; conditions: pretreatment at 3x IC50, then 10-fold dilution
Method: The reversibility of hGOAT inhibition by the α-cyanoenone compounds 3 and 9 was determined by enzyme pretreatment with each inhibitor at three times the measured IC50 concentration, followed by a 10-fold dilution into either reaction buffer or buffer containing the same inhibitor concentration as the pretreatment.
Undiluted homogenized membrane protein fraction containing hGOAT (protein concentration ˜7 μg/μL) was incubated with 10 μM MAFP and 3×IC50 of inhibitor or equal volume vehicle (DMSO or ethanol) for 30 minutes at room temperature. […] Reactions were incubated for 3 hours at room temperature in the dark and then analyzed as described above.

[3] = read-out: IC50, inhibition of hGOAT activity
[4] = hGOAT activity, averaged, read-out: IC50 (averaged)
[5] = hGOAT activity, individual trials, read-out: IC50 (individual trials)
[6] = unit inferred, read-out: IC50, inhibition of hGOAT

Structure (SMILES): O=C1C=CCCC1 [Compound 18, cyclohexenone, reference compound]
inhibition of hGOAT activity (in words) (hGOAT [1]; at concentrations up to 1 mM): does not inhibit hGOAT activity

inhibition of hGOAT activity (in words) (hGOAT [1]; at concentrations up to 100 μM): negligible inhibition
Structure (SMILES): C[C@H]1[C@H](C)CC[C@]2(C(=O)O)CC[C@]3(C)C(=CC[C@@H]4[C@@]5(C)CC[C@H](O)C(C)(C)[C@@H]5CC[C@]43C)[C@H]12 [ursolic acid, reference compound]

IC50 (hGOAT [1]; [3]): 8 ± 4 µM | reversibility of hGOAT inhibition (hGOAT [2]): reversible hGOAT inhibition
Structure (SMILES): CCNC(=O)[C@]12CCC(C)(C)C[C@H]1[C@H]1C(=O)C=C3[C@@]4(C)C=C(C#N)C(=O)C(C)(C)[C@@H]4CC[C@@]3(C)[C@]1(C)CC2 [CDDO-EA]

inhibition of hGOAT octanoylation activity (in words) (hGOAT [1]): abrogates inhibition of hGOAT
Structure (SMILES): CC(C)CCC[C@@H](C)[C@H]1CC[C@H]2[C@@H]3CCC4=CC(=O)CC[C@]4(C)[C@H]3CC[C@]12C [Compound 14, (8S,9S,10R,13R,14S,17R)-10,13-dimethyl-17-((R)-6-methylheptan-2-yl)-6,7,8,9,10,11,12,13,14,15,16,17-dodecahydro-1H-cyclopenta[a]phenanthren-3(2H)-one]

Structure (SMILES): COC(=O)[C@]12CCC(C)(C)C[C@H]1[C@H]1C(=O)C=C3[C@@]4(C)C=C(C#N)C(=O)C(C)(C)[C@@H]4CC[C@@]3(C)[C@]1(C)CC2 [CDDO-Me, methyl 2-cyano-3,12-dioxooleana-1,9(11)dien-28-oate, reference compound]
inhibition of hGOAT octanoylation activity (in words) (hGOAT [1]): exhibits inhibitory activity against hGOAT

Structure (SMILES): C[C@@]12CCC[C@H]1[C@@H]1CC[C@H]3CC(=O)[C@H](Br)C[C@]3(C)[C@H]1CC2 [Compound 13, (2R,5S,8S,9S,10S,13S,14S)-2-bromo-10,13-dimethyltetradecahydro-1H-cyclopenta[a]phenanthren-3(2H)-one]
inhibition of hGOAT octanoylation activity (in words) (hGOAT [1]): unable to support inhibition

Structure (SMILES): C[C@@]12CCC[C@H]1[C@@H]1CC[C@H]3CC(=O)C(Br)=C[C@]3(C)[C@H]1CC2 [Compound 10, (5 S,8S,9S,10S,13S,14S)-10,13-dimethyl-3-oxo-4,5,6,7,8,9,10,11,12,13,14,15,16,17-tetradecahydro-3H-cyclopenta[a]phenanthrene-2-bromide]
IC50 (hGOAT [1]; [4]): 83 ± 29 µM | IC50 (hGOAT [1]; [5]): 84 ± 35 µM | melting point: 111 to 116 °C

Structure (SMILES): CC1(C)CC[C@]2(C(=O)n3ccnc3)CC[C@]3(C)[C@H](C(=O)C=C4[C@@]5(C)C=C(C#N)C(=O)C(C)(C)[C@@H]5CC[C@]43C)[C@@H]2C1 [CDDO-Im, 1[2-cyano-3,12-dioxooleana-1,9-dien-28-oyl]imidazole, reference compound]
IC50 (hGOAT [1]; [3]): 38 ± 6 µM

Structure (SMILES): N#CC1=CCCCC1=O [Compound 16, 6-oxocyclohex-1-enecarbonitrile]
IC50 (hGOAT [1]; read-out: IC50, inhibition of hGOAT): 1200 ± 200 µM

IC50 (hGOAT [1]; [6]): 500 ± 100 µM
Structure (SMILES): O=C1CCCC=C1Br [Compound 17, 2-bromocyclohex-2-enone]

Structure (SMILES): CCN1C(=O)C=CC1=O [NEM, N-ethylmaleimide]
inhibition of hGOAT octanoylation activity (in words) (hGOAT [1]): efficiently inhibits hGOAT | reversibility of hGOAT inhibition (hGOAT [2]): classical irreversible hGOAT inhibition

Structure (SMILES): C[C@@]12CCC[C@H]1[C@@H]1CC[C@H]3CC(=O)C=C[C@]3(C)[C@H]1CC2 [Compound 11, (2R,5S,8S,9S,10S,13S,14S)-10,13-dimethyl-4,5,6,7,8,9,10,11,12,13,14,15,16,17-tetradecahydro-3H-cyclopenta[a]phenanthren-3-one]
IC50 (hGOAT [1]; [4]): 166 ± 58 µM | IC50 (hGOAT [1]; [5]): 201 ± 107 µM | IC50 (hGOAT [1]; [6]): 170 ± 60 µM

Structure (SMILES): CC1(C)CC[C@]2(C(=O)O)CC[C@]3(C)C(=CC[C@@H]4[C@@]5(C)CC[C@H](O)C(C)(C)[C@@H]5CC[C@]43C)[C@@H]2C1 [oleanic acid, reference compound]
inhibition of hGOAT activity (in words) (hGOAT [1]; at concentrations up to 100 μM): negligible inhibition

inhibition of hGOAT acylation activity (in words) (hGOAT [1]; at concentrations up to 100 (unit not given)): fails to inhibit
Structure (SMILES): CC1(C)CC[C@]2(C)CC=C3[C@]4(C)CC[C@H]5C(C)(C)[C@@H](O)CC[C@]5(C)[C@H]4CC[C@@]3(C)[C@@H]2C1 [Taraxerol, taraxerol, reference compound]

inhibition of hGOAT octanoylation activity (in words) (hGOAT [1]): lack of inhibition activity
Structure (SMILES): CC1(C)CC[C@]2(C(=O)O)CC[C@]3(C)[C@H](C(=O)C=C4[C@@]5(C)C=C(C#N)C(=O)C(C)(C)[C@@H]5CC[C@]43C)[C@@H]2C1 [Compound 5, reference compound]

Structure (SMILES): C[C@@]12CCC[C@H]1[C@@H]1CC[C@H]3CC(=O)C(C#N)=C[C@]3(C)[C@H]1CC2 [Compound 9, (5S,8S,9S,10S,13S,14S)-10,13-dimethyl-3-oxo-4,5,6,7,8,9,10,11,12,13,14,15,16,17-tetradecahydro-3H-cyclopenta[a]phenanthrene-2-carbonitrile]
IC50 (hGOAT [1]; [5]): 7 ± 3 µM | IC50 (hGOAT [1]; [3]): 8 ± 2 µM | enhancement of inhibitor potency against hGOAT by the steroid scaffold (hGOAT [1]; α-cyanoenone 9 versus 16): ~150 fold | reversibility of hGOAT inhibition (hGOAT [2]): reversible hGOAT inhibition

Structure (SMILES): C[C@@]12CCC[C@H]1[C@@H]1CC[C@H]3CC(=O)CC[C@]3(C)[C@H]1CC2 [Compound 12, (5S,8S,9S,10S,13S,14S)-10,13-dimethyltetradecahydro-1H-cyclopenta[a]phenanthren-3(2H)-one]
inhibition of hGOAT octanoylation activity (in words) (hGOAT [1]): loss of inhibition
